Measurements reported in patent US20090069230A1, “GDNF-DERIVED PEPTIDES” (The Research Foundation of State University of New York, priority 2007, published 2009).

System: C6 glial cells
Assay: Ca2+ mobilization in GDNF peptide-treated C6 glial cells (Calcium Crimson-AM fluorescence)
Format: cell-based
Details: for change in Ca2+ mobilization relative to control samples: external Ca2+ containing buffer, FIG. 6; for change in Ca2+ mobilization relative to control samples / change in fluorescence relative to the control sample: peptide 1 7.0 μM, peptide 2 2.3 μM, peptide 3 0.8 μM; for change in fluorescence relative to the control sample: external Ca2+ free buffer, FIG. 5
Protocol: We evaluated the ability of the GDNF peptides to activate G-protein associated transmembrane receptors. C6 glial cells were incubated with GDNF peptides, either singly or in combination, and calcium mobilization was monitored as a index of receptor activation.
GDNF peptides were custom synthesized via automated solid-phase methods using FMOC chemistry, HPLC purified, and characterized at the Small Peptide Synthesis Resource of the KECK Facility at Yale University. C6 glial cells were cultured to 80% confluency in the presence of GDNF peptides and loaded with the Ca^2+-sensitive fluorescent indicator dye, Calcium Crimson-AM (5 μM dye in Me2SO) at 37° C. for 20 min. Approximately 10^3 cells were then transferred into a quartz cuvette and the change in intracellular fluorescence was monitored in real time using an ISI Fluorescence spectrophotometer with an excitation wavelength of 590 nm. Emissions were monitored at 615 nm. An increase in fluorescence units was indicative of a rise in internal calcium.
C6 glial cells were cultured as above and incubated in increasing concentrations (0.8 μM; 1.6 μM; 2.4 μM; 3.2 μM and 4.0 μM) of GDNF-derived peptide (FPLPA (SEQ ID NO:4)). Fluorescence was measured according to the method in Example 3.
C6 glial cells were cultured as above and incubated in increasing concentrations (7.0 μM; 14 μM; 21 μM; 28 μM and 35 μM) of GDNF-derived peptide (PPEAPAEDRSL (SEQ ID NO:5)). Fluorescence was measured according to the method in Example 3.
C6 glial cells were cultured as above except that no Ca^2+ was present in the media. Cells were incubated with GDNF-derived peptides according to the experimental design indicated in Table 2 and the combinations in FIG. 5. Fluorescence was measured according to the method in Example 3.
C6 glial cells were cultured according to the method in Example 3. Cells were incubated with GDNF-derived peptides according to the experimental design indicated in Table 2 and the combinations in FIG. 6. Fluorescence was measured according to the method in Example 3.

Substance	change in Ca2+ mobilization relative to control samples	change in fluorescence relative to the control sample	Ca2+ mobilization (fluorescence), dose response (PPEAPAEDRSL at 7.0, 14, 21, 28 and 35 μM, FIG. 4)	Ca2+ mobilization (fluorescence), dose response (FPLPA at 0.8, 1.6, 2.4, 3.2 and 4.0 μM, FIG. 3)
ERNRQAAAANPENSRGK (listed as Homo sapiens) [GDNF-derived peptide, 17-mer]	decrease in Ca^2+ mobilization	moderate increases	–	–
PPEAPAEDRSL (listed as Homo sapiens) [GDNF-derived peptide, 11-mer]	increase in Ca^2+ mobilization	moderate increases	dose-dependent increase in Ca^2+ mobilization	–
FPLPA (listed as Homo sapiens) [GDNF-derived peptide, 5-mer]	decrease in Ca^2+ mobilization	moderate increases	–	dose-dependent increase in Ca^2+ mobilization at peptide concentrations up to 3.2 μM, followed by a decrease at 4.0 μM
